Values quoted from earlier work as cited in patent EP1526849B1 (A. MENARINI INDUSTRIE FARMACEUTICHE RIUNITE S.R.L., priority 2002, dated 2004).

Conditions: gel with benzofenone-3 1%; 8 hours solar light; JP60155111 example 1

- percentage of ketoprofen not broken down: 90%
SMILES: CC(C(=O)O)c1cccc(C(=O)c2ccccc2)c1 (stereo not shown) [ketoprofen]
